Measurements reported in patent EP0902088A2, “Peptides with antiproliferative properties” (Radulescu, Razvan T., priority 1996, dated 1999).

How the values were obtained:
K562-Zellen = test: Cytotoxicity by trypan blue counting in K562 leukaemia cells; type: cell-based; conditions: asynchronous K562 in RPMI with 10 % FCS, peptide 10^-5M, several time points
Source text: Fig. 13 zeigt, daß der zytotoxische Effekt des erfindungsgemäßen Peptids P3 [10^-5M] auf asynchrone K562-Zellen, die in RPMI-Zellkulturmedium mit 10 % FCS inkubiert wurden, zeitabhängig ist. Die Ergebnisse wurden aufgetragen als lebende mit P3 behandelte Zellen als Prozent der lebenden mit P3 nicht behandelten Zellen. Die Zahl der lebenden Zellen wurde ermittelt, indem man mindestens 200 Zellen mit der Trypanblaumethode zu jedem angegebenen Zeitpunkt auszählte.
(§1) Die zweite Versuchsanordnung betrifft die Leukämie-Zell-Linien K562 und CCRF-CEM und CCRF-CEM/ACT400. Hierbei wurden jeweils 100.000 asynchrone Zellen/well/ml RPMI/10% FCS für 48 Stunden mit den jeweiligen Peptiden in 6-well-Platten inkubiert. Als Readout gilt die Anzahl der mit Hilfe der Trypanblaufärbung (L.D. Attardi et al., The EMBO Journal, 1996, Vol. 15, No. 14, pp. 3693-3701 und M.K. Reeder & H.C. Isom, Cell Growth & Differentiation, 1996, Vol. 7, pp. 449-460) nach 48 Stunden Inkubationszeit festgestellten toten Zellen/200 ausgezählte Zellen. Je mehr tote Zellen, desto zytotoxischer das Peptid und damit umso effektiver.

MCF-7-Zellen = test: Cell cycle analysis by FACS in MCF-7 breast carcinoma cells; type: cell-based, human
Source text: Die eine Versuchsanordnung beinhaltet Versuche mit der humanen intaktes Retinoblastomprotein enthaltenden Mammakarzinom-Zell-Linie MCF-7 bzw. der humanen defektes Retinoblastomprotein enthaltenden Osteosarkom-Zell-Linie SAOS-2. Man sät die Zellen zuerst in 12-well-Platten 100.000 (= Hunderttausend) Zellen/-well/ml RPMI oder DMEM/10% FCS) aus, läßt sie 24 Stunden adhärieren, […], und stimuliert sie dann entweder mit 10% FCS oder 10^-8 M IGF-1 oder 10^-6 M Insulin für 24 Stunden, wobei der Effekt der jeweils zugegebenen Peptide auf die jeweilige Stimulation, die ein Maß für die Zellteilungsrate ist, untersucht wird. Die Kontrollgruppe (G0/G1-synchronisierte Zellen) wird zum Zeitpunkt 0 nach der dreitägigen Hungerphase fixiert, die restlichen Zellen (+/- Peptid) werden nach 24 Stunden fixiert. Daraufhin werden die Zellen zwecks Zellzyklusanalyse im FACS analysiert. Analoge Methoden finden sich beispielsweise bei R. Fahraeus et al., Current Biology, 1996, Vol. 6, No. 1, pp 84-91 sowie bei L. Zhu et al., Genes & Development, 1993, Vol. 7, pp. 1111-1125.

CCRF-CEMsensitiv = test: Cytotoxicity by trypan blue counting in CCRF-CEM (sensitive) leukaemia cells; type: cell-based; conditions: asynchronous CCRF-CEM (sensitive) in RPMI with 10 % FCS; peptide 10^-5
Source text: as §1

[1] = test system: CCRF-CEM/ACT 400resistent-Zellen; test: Cytotoxicity by trypan blue counting in CCRF-CEM/ACT 400 (resistant) leukaemia cells; type: cell-based; conditions: asynchronous CCRF-CEM/ACT 400 (resistant) in RPMI with 10 % FCS; peptide 10^-5
Source text: as §1

SAOS-2-Zellen = test: Cell cycle analysis by FACS in SAOS-2 osteosarcoma cells; type: cell-based, human; conditions: peptide 10^-5M
Source text: Die eine Versuchsanordnung beinhaltet Versuche mit der humanen intaktes Retinoblastomprotein enthaltenden Mammakarzinom-Zell-Linie MCF-7 bzw. der humanen defektes Retinoblastomprotein enthaltenden Osteosarkom-Zell-Linie SAOS-2. Man sät die Zellen zuerst in 12-well-Platten 100.000 (= Hunderttausend) Zellen/-well/ml RPMI oder DMEM/10% FCS) aus, läßt sie 24 Stunden adhärieren, hungert sie anschließend 3 Tage in DMEM ohne FCS mit dem Zweck, die Zellen in der G0/G1-Phase zu synchronisieren, und stimuliert sie dann entweder mit 10% FCS oder 10^-8 M IGF-1 oder 10^-6 M Insulin für 24 Stunden, wobei der Effekt der jeweils zugegebenen Peptide auf die jeweilige Stimulation, die ein Maß für die Zellteilungsrate ist, untersucht wird. Die Kontrollgruppe (G0/G1-synchronisierte Zellen) wird zum Zeitpunkt 0 nach der dreitägigen Hungerphase fixiert, die restlichen Zellen (+/- Peptid) werden nach 24 Stunden fixiert. Daraufhin werden die Zellen zwecks Zellzyklusanalyse im FACS analysiert. Analoge Methoden finden sich beispielsweise bei R. Fahraeus et al., Current Biology, 1996, Vol. 6, No. 1, pp 84-91 sowie bei L. Zhu et al., Genes & Development, 1993, Vol. 7, pp. 1111-1125.

[2] = test system: normale humane mononukleäre Zellen des peripheren Blutes; test: Effect on normal peripheral blood mononuclear cells; type: cell-based, human; conditions: peptide 10^-5, 24 h incubation
Source text: Fig. 15 zeigt, daß das erfindungsgemäße Peptid P3 [10^-5] keinen Effekt auf normale humane mononukleäre Zellen des peripheren Blutes hat, unabhängig davon, ob diese sich in einem ruhenden (a) oder aktivierten (b) Zustand befinden. […] Die Inkubation der Zellen mit P3 erfolgte für einen Zeitraum von 24 Stunden.

[3] = G0/G1-synchronised MCF-7 cells, serum-free, peptide 10^-5M
[4] = MCF-7 stimulated with EGF 10^-8, peptide 10^-5M
[5] = MCF-7 stimulated with IGF-1 10^-8M, peptide 10^-5M
[6] = MCF-7 stimulated with Östradiol (E2) 10^-9M, peptide 10^-5M
[7] = asynchronous MCF-7 in DMEM with 10 % FCS, peptide 10^-5M
[8] = G0/G1-synchronised SAOS-2 cells, serum-free

Compound: CC(C)C[C@@H](N)C(=O)N[C@H](Cc1ccccc1)C(=O)N[C@H](Cc1ccc(O)cc1)C(=O)N[C@H](CCCCN)C(=O)N[C@H](CCCCN)C(=O)N[C@@H](C(=O)NCC(=O)NCC(=O)NCC(=O)NCCCC[C@H](NC(=O)CNC(=O)CNC(=O)CNC(=O)[C@H](NC(=O)[C@@H](CCCCN)NC(=O)[C@@H](CCCCN)NC(=O)[C@@H](Cc1ccc(O)cc1)NC(=O)[C@@H](Cc1ccccc1)NC(=O)[C@H](N)CC(C)C)C(C)C)C(=O)N[C@H](CCCNC(=N)N)C(=O)NCC(=O)NCCCC[C@H](NC(=O)CNC(=O)[C@@H](CCCNC(=N)N)NC(=O)[C@H](CCCCNC(=O)CNC(=O)CNC(=O)CNC(=O)[C@H](NC(=O)[C@@H](CCCCN)NC(=O)[C@@H](CCCCN)NC(=O)[C@@H](Cc1ccc(O)cc1)NC(=O)[C@@H](Cc1ccccc1)NC(=O)[C@H](N)CC(C)C)C(C)C)NC(=O)CNC(=O)CNC(=O)CNC(=O)[C@H](NC(=O)[C@@H](CCCCN)NC(=O)[C@@H](CCCCN)NC(=O)[C@@H](Cc1ccc(O)cc1)NC(=O)[C@@H](Cc1ccccc1)NC(=O)[C@H](N)CC(C)C)C(C)C)C(=O)NCC(=O)O)C(C)C (racemic) [P3, NH2-[dL-dF-dY-dK-dK-dV-GGG]4-[lK-dR-G]2-lK-G-COOH]
- zytotoxische Effekt (lebende mit P3 behandelte Zellen als Prozent der lebenden mit P3 nicht behandelten Zellen) (K562-Zellen): zeitabhängig
- G1-Phase (MCF-7-Zellen; [3]): vermindert
- Morphologie der behandelten Zellen (MCF-7-Zellen; [3]): entspricht der apoptotischer Zellen
- S-Phase (MCF-7-Zellen; [3]): erhöht
- G1-Phase (MCF-7-Zellen; [4]): Zunahme
- G2-Phase (MCF-7-Zellen; [4]): Zunahme
- Morphologie der behandelten Zellen (MCF-7-Zellen; [4]): entspricht der apoptotischer Zellen
- S-Phase (MCF-7-Zellen; [4]): Abnahme
- Morphologie der behandelten Zellen (MCF-7-Zellen; MCF-7 stimulated with IGF-1 10^-8M, peptide 5 x 10^-6M): entspricht jeweils der apoptotischer Zellen
- G1-Phase (MCF-7-Zellen; [5]): Zunahme
- G2/M-Phase (MCF-7-Zellen; [5]): Zunahme
- Morphologie der behandelten Zellen (MCF-7-Zellen; [5]): entspricht jeweils der apoptotischer Zellen
- S-Phase (MCF-7-Zellen; [5]): Abnahme
- durch IGF-1 [10^-8M] bedingte Fortschreiten des Zellzyklus (MCF-7-Zellen; MCF-7 stimulated with IGF-1 10^-8M, several peptide concentrations (Fig. 7)): in einer konzentrationsabhängigen Weise blockiert
- G1-Phase (MCF-7-Zellen; [6]): Zunahme
- G2-Phase (MCF-7-Zellen; [6]): Zunahme
- Morphologie der behandelten Zellen (MCF-7-Zellen; [6]): entspricht der apoptotischer Zellen
- S-Phase (MCF-7-Zellen; [6]): Abnahme
- G1-Phase (MCF-7-Zellen; [7]): vermindert
- Morphologie der behandelten Zellen (MCF-7-Zellen; [7]): entspricht der apoptotischer Zellen
- S-Phase (MCF-7-Zellen; [7]): erhöht
- zytotoxischer Effekt (CCRF-CEMsensitiv): zytotoxisch
- zytotoxischer Effekt [1]: zytotoxisch
- G1-Phase (SAOS-2-Zellen; [8]): vermindert
- G2-Phase (SAOS-2-Zellen; [8]): erhöht
- Morphologie der behandelten Zellen (SAOS-2-Zellen; [8]): entspricht der apoptotischer Zellen
- S-Phase (SAOS-2-Zellen; [8]): erhöht
- G1-Phase (SAOS-2-Zellen; SAOS-2 stimulated with 10 % FS): Zunahme
- Morphologie der behandelten Zellen (SAOS-2-Zellen; SAOS-2 stimulated with 10 % FS): entspricht der apoptotischer Zellen
- S-Phase (SAOS-2-Zellen; SAOS-2 stimulated with 10 % FS): Abnahme
- Effekt auf normale humane mononukleäre Zellen des peripheren Blutes ([2]; activated state (b)): keinen Effekt
- morphologische Veränderungen ([2]; resting or activated cells): keine morphologischen Veränderungen
- Effekt auf normale humane mononukleäre Zellen des peripheren Blutes ([2]; resting state (a)): keinen Effekt
